According to article PMC6443726, “The unfolded protein response modulators GSK2606414 and KIRA6 are potent KIT inhibitors” (Cell Death & Disease, 2019):

Target: T1, KIT (Homo sapiens, UniProt P10721)
T1 construct: recombinant cytoplasmic portion of KIT, wild type (ProQinase #0997-0000-1)
Assay: MicroScale Thermophoresis (MST)
Format: binding

T1 sequence (P10721 544-976 limits assumed): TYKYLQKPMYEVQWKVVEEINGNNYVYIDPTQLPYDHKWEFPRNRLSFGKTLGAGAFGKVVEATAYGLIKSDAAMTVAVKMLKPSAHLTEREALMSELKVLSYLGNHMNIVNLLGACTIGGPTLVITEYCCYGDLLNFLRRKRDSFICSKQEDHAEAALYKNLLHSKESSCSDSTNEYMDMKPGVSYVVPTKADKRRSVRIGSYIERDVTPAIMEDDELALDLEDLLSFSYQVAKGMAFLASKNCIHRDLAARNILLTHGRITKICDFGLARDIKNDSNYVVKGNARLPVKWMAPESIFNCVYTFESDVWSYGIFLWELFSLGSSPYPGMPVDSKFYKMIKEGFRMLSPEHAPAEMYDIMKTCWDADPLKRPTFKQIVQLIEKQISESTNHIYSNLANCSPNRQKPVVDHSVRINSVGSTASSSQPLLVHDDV

`CC(C)(C)c1nc(-c2ccc(NC(=O)Nc3cccc(C(F)(F)F)c3)c3ccccc23)c2c(N)nccn12` [KIRA6] showed a Kd of 10.8 ± 2.9 µM.
For `Cn1cc(-c2ccc3c(c2)CCN3C(=O)Cc2cccc(C(F)(F)F)c2)c2c(N)ncnc21` [GSK414, 7-methyl-5-(1-{[3-(trifluoromethyl)phenyl]acetyl}-2,3-dihydro-1H-indol-5-yl)-7H-p yrrolo[2,3-d]pyrimidin-4-amine], the Kd was 0.664 ± 0.294 µM.
